According to ChEMBL document CHEMBL4414607, “Protein Stability Effects in Aggregate-Based Enzyme Inhibition” (J Med Chem, 2019):

Legend:
Bacteria [1] = assay: Binding affinity to bacterial Beta-lactamase TEM-1 M182T mutant assessed as change in melting temperature at 100-fold molar excess compound concentration relative to apo-enzymes by SYPRO Orange dye based differential scanning fluorimetry
Bacteria [2] = assay: Binding affinity to bacterial Beta-lactamase TEM-1 M182T/G238S mutant assessed as change in melting temperature at 100-fold molar excess compound concentration relative to apo-enzymes by SYPRO Orange dye based differential scanning fluorimetry
[3] = target: Beta-lactamase TEM (Bacteria) (UniProt P62593); assay: Binding affinity to bacterial wild type Beta-lactamase TEM-1 assessed as change in melting temperature at 100-fold molar excess compound concentration relative to apo-enzymes by SYPRO Orange dye based differential scanning fluorimetry
Chain of Beta-lactamase TEM (Bacteria) (P62593 whole entry): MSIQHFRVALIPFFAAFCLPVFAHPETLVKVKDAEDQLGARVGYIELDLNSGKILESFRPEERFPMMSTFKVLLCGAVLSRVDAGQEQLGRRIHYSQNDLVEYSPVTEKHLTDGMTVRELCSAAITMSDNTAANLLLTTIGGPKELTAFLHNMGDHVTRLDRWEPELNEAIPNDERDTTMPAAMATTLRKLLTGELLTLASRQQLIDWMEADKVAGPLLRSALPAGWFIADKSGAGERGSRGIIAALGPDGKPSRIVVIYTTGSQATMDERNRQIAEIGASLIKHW

Bacteria [4] = test system: Bacteria
Bacteria [5] = assay: Binding affinity to bacterial Beta-lactamase TEM-1 G238S mutant assessed as change in melting temperature at 100-fold molar excess compound concentration relative to apo-enzymes by SYPRO Orange dye based differential scanning fluorimetry
Bacteria [6] = assay: Binding affinity to bacterial Beta-lactamase TEM-1 D179G mutant assessed as change in melting temperature at 100-fold molar excess compound concentration relative to apo-enzymes by SYPRO Orange dye based differential scanning fluorimetry

## CO[C@@]1(NC(=O)[C@H](C(=O)O)c2ccc(O)cc2)C(=O)N2C(C(=O)O)=C(CSc3nnnn3C)CO[C@@H]21
Bacteria [1]
  ΔTm: -4.1 °C
Bacteria [2]
  ΔTm: -0.7 °C
[3]
  ΔTm: -4.5 °C
Bacteria [4]
  ΔTm: -3.3 °C
Bacteria [5]
  ΔTm: -1.9 °C
Bacteria [6]
  ΔTm: 2.9 °C
